The record followed here is ChEMBL document CHEMBL1201862, “PubChem BioAssay data set” (2004).

Test systems include HOP-18; RXF 631; DLD-1; M19-MEL; LXFL 529; DMS-114; SNB-78; KM-20L2; BT-549.
Holding throughout (experiment): inhibition of tumour cell growth, NCI panel, 48 h

SMILES strings stand for the structures.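 Grown in 96-well plates, cells were treated for 48 hours with each compound at five concentrations. Insufficient inhibition: endpoint recorded as highest concentration tested. GI50: concentration for 50% inhibition of growth.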 Activity calls are given as the source filed them. Rule as the data show it: active = GI50 up to about 1.1 µM and inactive = higher. A value given as a limit tells only on which side of the number the result lay.

Consider `CC(=O)C1CC=C(C)CC1` (stereo unspecified), for which the GI50 in the experiment with HOP-18, in the experiment with RXF 631, with DLD-1, in the experiment with M19-MEL, in the experiment with LXFL 529 and in the experiment with DMS-114 was > 100 µM (inactive) each time. In addition, the GI50 in the experiment on SNB-78 and in the experiment with KM-20L2 was > 100 µM (inactive) in each case.
For the compound `Clc1ccccc1C(n1cc(Br)cn1)n1cc(Br)cn1`, the GI50 in the experiment on RXF 631 is > 10 µM (inactive); in the experiment with DLD-1, 18.6 µM (inactive); with M19-MEL, 14.4 µM (inactive); in the experiment on LXFL 529, 95.7 µM (inactive); in the experiment with DMS-114, 21.4 µM (inactive); in the experiment with SNB-78, > 100 µM (inactive).
Regarding `COc1cc2c(cc1OC)C(C(=O)O)C(c1ccccc1)N(C)C2=O` (stereo unspecified), the GI50 in the experiment on HOP-18, with DLD-1, with M19-MEL, in the experiment with LXFL 529, with DMS-114 and in the experiment with SNB-78 was > 100 µM (inactive) throughout. Moreover, the GI50 in the experiment with KM-20L2 is > 100 µM (inactive).
On to `O=C1C=CC(=O)C2C1Cc1ccccc1C2c1ccccc1` (stereo unspecified), for which the GI50 was 53.6 µM (inactive) in the experiment on HOP-18; 56.2 µM (inactive) in the experiment on DLD-1; 30.1 µM (inactive) with M19-MEL; 17.3 µM (inactive) with LXFL 529; 22.2 µM (inactive) in the experiment with DMS-114; 50 µM (inactive) in the experiment with KM-20L2.
For `COc1ccc(S(=O)(=O)N/N=C\c2cc([N+](=O)[O-])cc(I)c2O)c(OC)c1OC`, the GI50 in the experiment on HOP-18 was 23.3 µM (inactive); in the experiment with DLD-1 it was 28.8 µM (inactive); in the experiment on M19-MEL, 31.7 µM (inactive); in the experiment on LXFL 529, > 10 µM (inactive); in the experiment on DMS-114, 25.1 µM (inactive); in the experiment on SNB-78, 28.6 µM (inactive). In the experiment on KM-20L2, the GI50 was 36.2 µM (inactive).
For the compound `CC(=O)O[C@]1(C)OC(=O)[C@@H](C)N1[N+](=O)[O-]`, the GI50 in the experiment on HOP-18, in the experiment with DLD-1, in the experiment with M19-MEL, in the experiment on LXFL 529, in the experiment with DMS-114 and with SNB-78 was > 100 µM (inactive) throughout. In addition, in the experiment on KM-20L2, the GI50 is > 100 µM (inactive).
Take `COc1cc([C@@H]2OC(=O)C3C2C(=O)O[C@H]3c2cc(OC)c(OC)c(OC)c2)cc(OC)c1OC` (stereo partly specified): the GI50 with HOP-18, with RXF 631, with M19-MEL, in the experiment with DMS-114, with SNB-78 and in the experiment with KM-20L2 was > 100 µM (inactive) throughout.
In the case of `COC1CC(C)C(OC)C2=CC(=O)C=C(NC(=O)/C(C)=C/C=C\C(C)C(OC(N)=O)/C(C)=C\C(C)C1OC)C2=O` (stereo unspecified), the GI50 in the experiment with HOP-18 is 0.179 µM (active); in the experiment with DLD-1 it was 0.804 µM (active); in the experiment with M19-MEL, 0.441 µM (active); in the experiment on LXFL 529, 0.191 µM (active); in the experiment with DMS-114, 0.403 µM (active); in the experiment on SNB-78, 1.71 µM (inactive). For the same compound, the GI50 in the experiment with KM-20L2 is 0.202 µM (active).
Take `Cc1ccc(S(=O)(=O)CC(=O)CC(=O)C(=O)Nc2cccc(C(F)(F)F)c2)cc1`: the GI50 in the experiment on RXF 631, with DLD-1, in the experiment on M19-MEL, in the experiment with LXFL 529, in the experiment on SNB-78 and in the experiment on KM-20L2 was > 100 µM (inactive) each time.
For `Cc1c(/C=N/NC(=O)c2ccc(Cl)cc2)c(=O)n(-c2ccccc2)n1C`, the GI50 in the experiment with HOP-18, in the experiment on DLD-1, in the experiment with M19-MEL, in the experiment on LXFL 529, with DMS-114 and in the experiment on SNB-78 was > 100 µM (inactive) throughout. In the experiment on KM-20L2, the GI50 is > 100 µM (inactive).
As to `CC(CN(C)C)/C(=N\Nc1ccccc1)c1ccccc1` (stereo unspecified), the GI50 is 10.7 µM (inactive) in the experiment on HOP-18; 0.256 µM (active) in the experiment on DLD-1; 1.24 µM (inactive) in the experiment with M19-MEL; 0.0473 µM (active) in the experiment with LXFL 529; 0.743 µM (active) in the experiment with DMS-114; 6.1 µM (inactive) with SNB-78. Moreover, in the experiment with KM-20L2, the GI50 was 0.132 µM (active).
For the compound `NCCOc1ccc(/C(=C(/Cl)c2ccccc2)c2ccccc2)cc1`, the GI50 with RXF 631 was 11.4 µM (inactive); with DLD-1 it was 15.6 µM (inactive); in the experiment on M19-MEL it was 10.7 µM (inactive); in the experiment with LXFL 529, 7.1 µM (inactive); in the experiment on DMS-114, 12.9 µM (inactive); with SNB-78 it was 10 µM (inactive). Moreover, in the experiment on KM-20L2, the GI50 is 6.62 µM (inactive).
`CC(C)NC(=O)OCc1c(COC(=O)NC(C)C)c(-c2ccc(Cl)c(Cl)c2)n2c1CCC2`: the GI50 with HOP-18 was > 61.2 µM (inactive); with DLD-1, > 51.5 µM (inactive); with M19-MEL, 33.7 µM (inactive); with LXFL 529, 3.6 µM (inactive); in the experiment on DMS-114, 33.7 µM (inactive); in the experiment with SNB-78, 21.2 µM (inactive). The GI50 with KM-20L2 is 35.1 µM (inactive); in the experiment with BT-549 it was > 100 µM (inactive).
Consider `Cc1cnoc1/N=C1\C=C(Nc2oncc2C)C(=O)c2ccccc21`, for which the GI50 in the experiment on HOP-18 is > 100 µM (inactive); in the experiment on RXF 631, > 100 µM (inactive); in the experiment on DLD-1 it was > 100 µM (inactive); in the experiment with LXFL 529 it was 79.1 µM (inactive); in the experiment on DMS-114, 46.8 µM (inactive); in the experiment with SNB-78, > 100 µM (inactive). For the same compound, the GI50 in the experiment with KM-20L2 was > 100 µM (inactive).
Turning to `O=C(Nc1ccc(Cl)cc1)NS(=O)(=O)c1ccc2c(c1)CCC2` [SULOFENUR], the GI50 in the experiment with HOP-18 is 42.8 µM (inactive); in the experiment with DLD-1, 44.4 µM (inactive); in the experiment on M19-MEL, > 68.7 µM (inactive); in the experiment with LXFL 529, 31.5 µM (inactive); in the experiment with DMS-114, 35.2 µM (inactive); in the experiment with SNB-78 it was > 47 µM (inactive). Also, the GI50 in the experiment on KM-20L2 is 37.8 µM (inactive); with BT-549, 32.6 µM (inactive).
For the compound `CCOC1(COP(=O)(OCc2ccccc2)OCc2ccccc2)COC(COP(=O)(OCc2ccccc2)OCc2ccccc2)(OCC)CO1` (stereo unspecified), the GI50 was > 100 µM (inactive) in the experiment on HOP-18; 9.44 µM (inactive) in the experiment with RXF 631; > 100 µM (inactive) in the experiment on DLD-1; 15.5 µM (inactive) with M19-MEL; > 100 µM (inactive) in the experiment on LXFL 529; > 100 µM (inactive) with SNB-78. For the same compound, in the experiment with KM-20L2, the GI50 is > 100 µM (inactive).
Turning to `N#CCCC[Si]12OCCN(CCO1)CCO2`, the GI50 with HOP-18, with DLD-1, with M19-MEL, in the experiment on LXFL 529, in the experiment on DMS-114 and with SNB-78 was > 100 µM (inactive) in each case.
On to `O=C1c2ccc3c4ccccc4n(-c4ccccc4)c3c2C(=O)N1c1ccc(Cl)cc1`, for which the GI50 in the experiment with RXF 631, in the experiment on DLD-1, in the experiment with M19-MEL, in the experiment with LXFL 529, in the experiment on DMS-114 and with SNB-78 was > 100 µM (inactive) throughout. In addition, the GI50 in the experiment on KM-20L2 was > 100 µM (inactive).
Take `CC1=C(C(=O)Nc2ccccc2C)C(c2ccc([N+](=O)[O-])cc2)C(C(=O)Nc2ccccc2C)=C(C)N1`: the GI50 with HOP-18 is 55.2 µM (inactive); in the experiment on RXF 631, 76.6 µM (inactive); in the experiment on DLD-1, 50 µM (inactive); in the experiment on M19-MEL it was 64.1 µM (inactive); in the experiment on LXFL 529, 35.6 µM (inactive); in the experiment with DMS-114, 33.3 µM (inactive). Moreover, in the experiment on KM-20L2, the GI50 was 51.9 µM (inactive).
